Drawing on patent US10501421B1, “Substituted benzimidazoles as modulators of Ras signaling” (VANDERBILT UNIVERSITY, priority 2017, dated 2019), this text covers EC50 for 37 compounds.

Molecules are shown by their SMILES. Where a name gives a salt, the structure may show the parent alone.

In this assay the target is Ras GEF SOS (Son of Sevenless) (Homo sapiens, UniProt Q07889). The experiment in a line: SOS-mediated nucleotide exchange on Ras (BODIPY-GDP fluorescence). In kind it is biochemical. As to conditions: SOS-mediated exchange of BODIPY-GDP for GTP on Ras. As for the experimental part:
Compounds of the present invention were tested for their ability to modify the rate at which Ras exchanges a labeled nucleotide guanosine diphosphate (GDP) analog for guanosine triphosphate (GTP). Briefly, test compounds, then GTP and the Ras GEF SOS (Son of Sevenless) are added to a buffered solution containing Ras protein loaded with BODIPY-GDP. Changes in fluoresence indicating exchange of the labeled GDP for GTP are monitored over time. Raw fluorescence data was fit to a single exponential decay function and derived rates were plotted as mean values. EC50 values were calculated by plotting mean derived rates as a function of compound concentration and fit using a four-parameter dose-response curve. This assay is performed in a method analogous to the assay disclosed in: Burns, M. C.; Sun, Q.; Daniels, R. N.; Camper, D. V.; Kennedy, J. P.; Phan, J.; Olejniczak, E. O.; Lee, T.; Waterson, A. G.; Rossanese, O. W.; Fesik, S. W. “Approach for targeting Ras with small molecules that activate SOS-mediated nucleotide exchange” Proc. Natl. Acad. Sci. 2014; 11(9): 3401-3406. PMCID: PMC3948241.

As a reminder, the EC50 is the concentration that produces a half-maximal response. Lower therefore signals an effect from little substance.

Chain of Ras GEF SOS (Son of Sevenless) (Q07889 564-1049 limits assumed): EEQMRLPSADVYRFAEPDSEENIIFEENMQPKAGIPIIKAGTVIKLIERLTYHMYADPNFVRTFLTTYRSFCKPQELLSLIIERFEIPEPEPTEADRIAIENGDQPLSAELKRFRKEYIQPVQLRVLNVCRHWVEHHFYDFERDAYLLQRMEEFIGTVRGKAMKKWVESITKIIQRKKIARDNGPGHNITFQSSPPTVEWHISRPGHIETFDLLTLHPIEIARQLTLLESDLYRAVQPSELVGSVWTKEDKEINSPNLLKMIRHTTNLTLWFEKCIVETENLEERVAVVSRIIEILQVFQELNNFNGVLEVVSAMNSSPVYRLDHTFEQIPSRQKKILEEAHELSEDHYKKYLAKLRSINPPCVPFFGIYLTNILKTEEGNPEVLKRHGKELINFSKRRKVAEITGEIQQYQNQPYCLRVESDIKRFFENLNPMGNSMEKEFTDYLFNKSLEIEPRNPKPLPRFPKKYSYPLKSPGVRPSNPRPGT
Chain of Ras GEF SOS (Son of Sevenless) (P01112 1-166 partner limits assumed): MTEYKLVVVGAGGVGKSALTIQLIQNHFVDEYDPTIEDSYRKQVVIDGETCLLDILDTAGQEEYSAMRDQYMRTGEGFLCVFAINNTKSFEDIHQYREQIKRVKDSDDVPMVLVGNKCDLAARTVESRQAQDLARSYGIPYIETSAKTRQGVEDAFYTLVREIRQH

`Fc1cc(F)cc(Cn2c(N3CCNCC3)nc3ccccc32)c1` [Example 14, 1-(3,5-difluorobenzyl)-2-(piperazin-1-yl)-1H-benzo[d]imidazole trifluoroacetate] showed an EC50 of 5 to 30 µM.

Regarding `Cc1cc(Cn2c(NCCN)nc3c(-c4ccccc4)nccc32)ccc1F` [Example 221, N^1-(1-(4-fluoro-3-methylbenzyl)-4-phenyl-1H-imidazo[4,5-c]pyridin-2-yl)ethane-1,2-diamine], the EC50 fell in the range of 30 to 100 µM.

With `COc1ccc(-c2cccc3c2nc(N2CCNCC2)n3Cc2ccc(F)c(Cl)c2)cc1OC` [Example 88, 1-(3-chloro-4-fluorobenzyl)-4-(3,4-dimethoxyphenyl)-2-(piperazin-1-yl)-1H-benzo[d]imidazole], the EC50 lay in the range of 1 to 5 µM.

In the case of `Oc1ccc(-c2cccc3c2nc(N2CCNCC2)n3Cc2ccc(F)c(Cl)c2)cc1` [Example 264, 4-[1-[(3-chloro-4-fluorophenyl)methyl]-2-piperazin-1-ylbenzimidazol-4-yl]phenol], the EC50 was 5 to 30 µM.

For the compound `NCCNc1nc2ncccc2n1Cc1ccc(F)cc1` [Example 250, N^1-(1-(4-fluorobenzyl)-1H-imidazo[4,5-b]pyridin-2-yl)ethane-1,2-diamine], the 50% effective concentration (EC50) lay within 5 to 30 µM.

The compound `Cc1cc2nc(NC3CCNCC3)n(Cc3ccc(F)c(Cl)c3)c2cc1C` [Example 269, 1-[(3-chloro-4-fluorophenyl)methyl]-5,6-dimethyl-N-piperidin-4-ylbenzimidazol-2-amine] came in with an EC50 of 30 to 100 µM.

`Cc1cc2c(cc1C)N(Cc1cccc(Br)c1)C1=NCCCN12` [Example 215, 10-(3-bromobenzyl)-7,8-dimethyl-2,3,4,10-tetrahydrobenzo[4,5]imidazo[1,2-a]pyrimidine] showed an EC50 of 5 to 30 µM.

The compound `Cc1cc(Cn2c(N3CCNCC3)nc3c(-c4ccccc4)nccc32)ccc1F` [Example 220, 1-(4-fluoro-3-methylbenzyl)-4-phenyl-2-(piperazin-1-yl)-1H-imidazo[4,5-c]pyridine] registered an EC50 of 5 to 30 µM.

Regarding `Cc1ccc2nc([C@@H](N)Cc3ccc(O)cc3)n(Cc3ccc(F)cc3)c2c1` [Example 272, 4-[(2S)-2-amino-2-[1-[(4-fluorophenyl)methyl]-6-methylbenzimidazol-2-yl]ethyl]phenol], the EC50 was 30 to 100 µM.

For the compound `Cc1cc2nc(N3CCN(C)CC3)n(Cc3ccc(F)c(Cl)c3)c2cc1C` [Example 27, 1-(3-chloro-4-fluorobenzyl)-5,6-dimethyl-2-(4-methylpiperazin-1-yl)-1H-benzo[d]imidazole trifluoroacetate], the EC50 was in the range of 30 to 100 µM.

The compound `Cc1cc2nc(N)n(Cc3ccc(F)cc3)c2cc1C` [Example 3, 1-(4-fluorobenzyl)-5,6-dimethyl-1H-benzo[d]imidazol-2-amine] came in with a 50% effective concentration (EC50) of 30 to 100 µM.

Compound `Cc1ccc2nc([C@H](N)CO)n(Cc3cccc(Cl)c3)c2c1` [Example 271, (2S)-2-amino-2-[1-[(3-chlorophenyl)methyl]-6-methylbenzimidazol-2-yl]ethanol] yielded a concentration for a half-maximal effect (EC50) of 30 to 100 µM.

`NCCc1cccc2c1nc(N1CCNCC1)n2Cc1cc(F)cc(F)c1` [Example 99, 2-(1-(3,5-difluorobenzyl)-2-(piperazin-1-yl)-1H-benzo[d]imidazol-4-yl)ethan-1-amine trifluoroacetate] yielded an EC50 of 5 to 30 µM.

`Cc1ccc2nc([C@@H](N)C(C)C)n(Cc3cccc(Cl)c3)c2c1` [Example 270, (S)-1-(1-(3-chlorobenzyl)-6-methyl-1H-benzo[d]imidazol-2-yl)-2-methylpropan-1-amine] came in with an EC50 of 30 to 100 µM.

Regarding `Cc1cc2c(nc(N3CCNCC3)n2Cc2ccc(F)c(C)c2)c(CN2CCOCC2)n1` [Example 237, 4-((1-(4-fluoro-3-methylbenzyl)-6-methyl-2-(piperazin-1-yl)-1H-imidazo[4,5-c]pyridin-4-yl)methyl)morpholine], the EC50 was 30 to 100 µM.

On to `Nc1nc2ccccc2n1Cc1ccc(F)cc1` [Example 1, 1-(4-fluorobenzyl)-1H-benzo[d]imidazol-2-amine], for which the EC50 fell in the range of 30 to 100 µM.

In turn, `Cc1cc(CN2CCCCC2)c2ncn(Cc3ccc(F)c(Cl)c3)c2c1` [Example 144, 1-(3-chloro-4-fluorobenzyl)-6-methyl-4-(piperidin-1-ylmethyl)-1H-benzo[d]imidazole trifluoroacetate] registered an EC50 of 30 to 100 µM.

The compound `Cc1cc2nc(-c3ccncc3)n(Cc3ccc(F)c(Cl)c3)c2cc1C` [Example 54, 1-(3-chloro-4-fluorobenzyl)-5,6-dimethyl-2-(pyridin-4-yl)-1H-benzo[d]imidazole] came in with a concentration for a half-maximal effect (EC50) of 30 to 100 µM.

With `Cc1cnc2nc(N3CCNCC3)n(Cc3ccc(F)c(C)c3)c2c1` [Example 244, 1-(4-fluoro-3-methylbenzyl)-6-methyl-2-(piperazin-1-yl)-1H-imidazo[4,5-b]pyridine], the EC50 lay in the range of 5 to 30 µM.

Regarding `Cc1cnc2ncn(Cc3ccc(F)c(Cl)c3)c2c1` [Example 243, 1-(3-chloro-4-fluorobenzyl)-6-methyl-1H-imidazo[4,5-b]pyridine], the concentration giving a half-maximal response (EC50) was in the range of 30 to 100 µM.

Compound `Cc1cc2nc(N)n(Cc3cc(F)cc(F)c3)c2cc1C` [Example 6, 1-(3,5-difluorobenzyl)-5,6-dimethyl-1H-benzo[d]imidazol-2-amine] gave an EC50 of 30 to 100 µM.

In turn, `Cc1cc2nc(NCCN(C)C)n(Cc3ccc(F)c(Cl)c3)c2cc1C` [Example 28, N^1-(1-(3-chloro-4-fluorobenzyl)-5,6-dimethyl-1H-benzo[d]imidazol-2-yl)-N^2,N^2-dimethylethane-1,2-diamine trifluoroacetate] came in with a concentration giving a half-maximal response (EC50) of 1 to 5 µM.

Compound `Cc1cc2nc(NCCN3CCOCC3)n(Cc3ccc(F)c(Cl)c3)c2cc1C` [Example 30, 1-(3-chloro-4-fluorobenzyl)-5,6-dimethyl-N-(2-morpholinoethyl)-1H-benzo[d]imidazol-2-amine trifluoroacetate] yielded a concentration giving a half-maximal response (EC50) of 5 to 30 µM.

The compound `Cc1cc2nc(N3CCC(N)C3)n(Cc3ccc(F)c(Cl)c3)c2cc1C` (stereo not shown) [Example 289, 1-(1-(3-chloro-4-fluorobenzyl)-5,6-dimethyl-1H-benzo[d]imidazol-2-yl)pyrrolidin-3-amine] displayed an EC50 of 1 to 5 µM.

The compound `Cc1cc2nc(-c3ccncc3)n(Cc3cc(F)cc(F)c3)c2cc1C` [Example 53, 1-(3,5-difluorobenzyl)-5,6-dimethyl-2-(pyridin-4-yl)-1H-benzo[d]imidazole] registered a concentration for a half-maximal effect (EC50) of 30 to 100 µM.

Consider `CC(C)N1CC[C@@H](C(=O)c2ccccc2)[C@H]1c1cc(Cl)cc2c1nc(N1CCNCC1)n2Cc1ccc(F)c(Cl)c1` [Example 152, ((2S,3R)-2-(6-chloro-1-(3-chloro-4-fluorobenzyl)-2-(piperazin-1-yl)-1H-benzo[d]imidazol-4-yl)-1-isopropylpyrrolidin-3-yl)(phenyl)methanone trifluoroacetate], for which the half-maximal effective concentration (EC50) is 1 to 5 µM.

Consider `NCCNc1nc2ccccc2n1Cc1cc(F)cc(F)c1` [Example 15, N^1-(1-(3,5-difluorobenzyl)-1H-benzo[d]imidazol-2-yl)ethane-1,2-diamine trifluoroacetate], for which the concentration for a half-maximal effect (EC50) was in the range of 5 to 30 µM.

`Clc1ccc(Cn2cnc3ncccc32)cc1` [Example 255, 1-(4-chlorobenzyl)-1H-imidazo[4,5-b]pyridine] returned an EC50 of 30 to 100 µM.

For `Fc1ccc(Cn2c(N3CCOCC3)nc3ccccc32)cc1Cl` [Example 8, 4-(1-(3-chloro-4-fluorobenzyl)-1H-benzo[d]imidazol-2-yl)morpholine], the EC50 lay in the range of 30 to 100 µM.

The compound `Fc1ccc(Cn2cnc3ncccc32)cc1` [Example 253, 1-(4-fluorobenzyl)-1H-imidazo[4,5-b]pyridine] came in with an EC50 of 30 to 100 µM.

Compound `Clc1ccc(Cn2c(N3CCNCC3)nc3ccccc32)cc1` [Example 11, 1-(4-chlorobenzyl)-2-(piperazin-1-yl)-1H-benzo[d]imidazole trifluoroacetate] showed a concentration for a half-maximal effect (EC50) of 1 to 5 µM.

`Cc1cc2nc(NCCO)n(Cc3ccc(F)cc3)c2cc1C` [Example 23, 2-((1-(4-fluorobenzyl)-5,6-dimethyl-1H-benzo[d]imidazol-2-yl)amino)ethan-1-ol] showed a concentration giving a half-maximal response (EC50) of 30 to 100 µM.

`Fc1ccc(Cn2c(N3CCNCC3)nc3ncccc32)cc1` [Example 249, 1-(4-fluorobenzyl)-2-(piperazin-1-yl)-1H-imidazo[4,5-b]pyridine] had an EC50 of 5 to 30 µM.

Take `Cc1cc2c(nc(N3CCNCC3)n2Cc2ccc(F)c(C)c2)c(CN2CCC(O)CC2)n1` [Example 238, 1-((1-(4-fluoro-3-methylbenzyl)-6-methyl-2-(piperazin-1-yl)-1H-imidazo[4,5-c]pyridin-4-yl)methyl)piperidin-4-ol]: the EC50 was 30 to 100 µM.

Consider `Nc1nc2ccccc2n1Cc1ccc(F)c(Cl)c1` [Example 2, 1-(3-chloro-4-fluorobenzyl)-1H-benzo[d]imidazol-2-amine], for which the concentration for a half-maximal effect (EC50) lay in the range of 30 to 100 µM.

Consider `Cc1ccc2c(n1)nc(N1CCNCC1)n2Cc1ccc(F)c(Cl)c1` [Example 256, 1-(3-chloro-4-fluorobenzyl)-5-methyl-2-(piperazin-1-yl)-1H-imidazo[4,5-b]pyridine], for which the EC50 was 5 to 30 µM.

Consider `Fc1ccc(Cn2c(C3CCNCC3)nc3ccccc32)cc1Cl` [Example 55, 1-(3-chloro-4-fluorobenzyl)-2-(piperidin-4-yl)-1H-benzo[d]imidazole trifluoroacetate], for which the concentration for a half-maximal effect (EC50) is 5 to 30 µM.
